What follows are compounds tested against MDM2 (Homo sapiens, UniProt Q00987) (assay: MDM2 binding screen of Libraries 3 and 4: displacement of fluorescent probe F-M8 at 750 nM macrocycle). Details: 750 nM macrocycle; crude reaction; probe F-M8.
Description: The cyclic peptide scaffolds required for Libraries 3 and 4 were synthesized as described for those used in Library 2. Due to the presence of many N-methylated amino acids which are more difficult to couple, 200 mM HOAt was applied together with HATU. The scaffolds were diluted to 2 mM in DMSO, and 15 nL were transferred using acoustic dispensing, followed by 15 nL DMSO containing carboxylic acids (40 mM, 20 equiv.), HBTU (40 mM) and DABCO (40 mM). After 6 h reaction at room temperature, 370 nL of DMSO was added to each well, followed by 5 μL of 100 mM Tris-Cl pH 7.4 containing 0.01% v/v Tween20, for quenching overnight.

Sequence of MDM2 (Q00987 whole entry): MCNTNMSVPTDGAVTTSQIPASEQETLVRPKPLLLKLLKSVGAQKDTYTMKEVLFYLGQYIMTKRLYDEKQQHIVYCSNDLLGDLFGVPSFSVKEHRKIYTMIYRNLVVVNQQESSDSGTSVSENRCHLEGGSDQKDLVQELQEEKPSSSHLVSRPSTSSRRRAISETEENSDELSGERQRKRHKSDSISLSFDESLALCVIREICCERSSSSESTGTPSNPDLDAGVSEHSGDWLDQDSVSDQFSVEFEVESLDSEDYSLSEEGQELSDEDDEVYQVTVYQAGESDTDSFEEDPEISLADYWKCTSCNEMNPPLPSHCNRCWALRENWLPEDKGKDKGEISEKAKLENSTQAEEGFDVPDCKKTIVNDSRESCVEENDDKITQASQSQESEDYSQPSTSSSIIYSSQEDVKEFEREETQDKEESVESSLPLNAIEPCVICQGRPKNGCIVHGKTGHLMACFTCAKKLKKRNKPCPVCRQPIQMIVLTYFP

| displacement of fluorescent probe from MDM2 [%] | SMILES |
| --- | --- |
| 68 | COc1ccc(/C=C/C(=O)NC[C@@H]2NC(=O)[C@H]3CCCN(C3)C(=O)CCSSCCNC(=O)[C@H](Cc3c[nH]c4ccccc34)NC2=O)cc1 [M9] |

Same assay, conditions: Panel b, Library 3: 63 scaffolds combinatorially acylated with 15 carboxylic acids at 30 picomole scale; displacement of fluorescent peptide probe; macrocycle 750 nM

| fraction of fluorescent probe displaced | SMILES |
| --- | --- |
| -0.019 | CC(Oc1cccc(Cl)c1)C(=O)NCCN1CC(=O)NC(Cc2c[nH]c3cc(Cl)ccc23)C(=O)NCCSSCCC(=O)NCC2(CC2)C1=O (mixture of isomers) [X-Amcp-N-Aeg-Cl-Trp + Acid 113] |
| 0.015 | CC(Oc1cccc(Cl)c1)C(=O)NCCN1CC(=O)NC(Cc2cn(C)c3ccccc23)C(=O)NCCSSCCC(=O)NCC2(CC2)C1=O (mixture of isomers) [X-Amcp-N-Aeg-Me-Trp + Acid 113] |
| -0.012 | CC(Oc1cccc(Cl)c1)C(=O)NCC1NC(=O)C2CCCN(C2)C(=O)CCSSCCNC(=O)C(Cc2ccc3ccccc3c2)NC1=O (mixture of isomers) [X-Nip-D-Dap-2-Nal + Acid 113] |
| 0.00133 | CC(Oc1cccc(Cl)c1)C(=O)NCC1NC(=O)C2CCCN(C2)C(=O)CCSSCCNC(=O)C(Cc2c[nH]c3ccccc23)N(C)C1=O (mixture of isomers) [X-Nip-D-Dap-NMe-Trp + Acid 113] |
| 0.00133 | O=C1NC(CNC(=O)C2COc3ccccc3O2)C(=O)NC(Cc2c[nH]c3ccccc23)C(=O)NCCSSCCC(=O)N2CCCC1C2 (mixture of isomers) [X-Nip-D-Dap-Trp + Acid 115] |
| -0.00533 | CC(Oc1cccc(Cl)c1)C(=O)NCC1NC(=O)C2CCCN(C2)C(=O)CCSSCCNC(=O)C(Cc2c[nH]c3ccccc23)NC1=O (mixture of isomers) [X-Nip-Dap-Trp + Acid 113] |
| -0.00533 | CC(Oc1cccc(Cl)c1)C(=O)NCCN1CC(=O)NC(Cc2cccc3ccccc23)C(=O)NCCSSCCC(=O)N2CCCC(C2)C1=O (mixture of isomers) [X-Nip-N-Aeg-1-NaI + Acid 113] |
| -0.00844 | O=C(O)C1CC1c1ccccc1 (centres unmarked) [Acid 105] |
| 0.00455 | O=C(O)/C=C/c1ccncc1 [Acid 106] |
| -0.002 | O=C(O)c1ccc2ccccc2c1 [Acid 107] |
| 0.015 | O=C(O)/C=C/c1ccc(Cl)cc1 [Acid 108] |
| 0.035 | O=C(O)/C=C/c1ccc(OCc2ccccc2)cc1 [Acid 110] |
| 0.015 | O=C(O)c1cccc(Oc2ccccc2)c1 [Acid 111] |
| 0.035 | O=C(O)CCS(=O)(=O)c1ccccc1 [Acid 114] |
| 0.008 | O=C1CCSSCCNC(=O)[C@H](Cc2cccc3ccccc23)NC(=O)[C@@H](CNC(=O)c2ccc(Cl)s2)NC(=O)C2(CC2)CN1 [X-Amcp-D-Dap-1-NaI + Acid 14] |
| -0.00844 | O=C1CCSSCCNC(=O)[C@H](Cc2cccc3ccccc23)NC(=O)[C@@H](CNC(=O)c2ccc3ccccc3c2)NC(=O)C2(CC2)CN1 [X-Amcp-D-Dap-1-NaI + Acid 107] |
| 0.021 | O=C(/C=C/c1ccc(Cl)cc1)NC[C@H]1NC(=O)C2(CC2)CNC(=O)CCSSCCNC(=O)[C@H](Cc2cccc3ccccc23)NC1=O [X-Amcp-D-Dap-1-NaI + Acid 108] |
| 0.028 | O=C(/C=C/c1ccc(OCc2ccccc2)cc1)NC[C@H]1NC(=O)C2(CC2)CNC(=O)CCSSCCNC(=O)[C@H](Cc2cccc3ccccc23)NC1=O [X-Amcp-D-Dap-1-NaI + Acid 110] |
| 0.008 | O=C1CCSSCCNC(=O)[C@H](Cc2cccc3ccccc23)NC(=O)[C@@H](CNC(=O)c2cccc(Oc3ccccc3)c2)NC(=O)C2(CC2)CN1 [X-Amcp-D-Dap-1-NaI + Acid 111] |
| -0.00533 | O=C(/C=C/c1ccc2ccccc2c1)NC[C@H]1NC(=O)C2(CC2)CNC(=O)CCSSCCNC(=O)[C@H](Cc2cccc3ccccc23)NC1=O [X-Amcp-D-Dap-1-NaI + Acid 112] |

| fraction of fluorescent probe displaced | SMILES |
| --- | --- |
| -0.00533 | CC(Oc1cccc(Cl)c1)C(=O)NC[C@H]1NC(=O)C2(CC2)CNC(=O)CCSSCCNC(=O)[C@H](Cc2cccc3ccccc23)NC1=O (stereo partly drawn) [X-Amcp-D-Dap-1-NaI + Acid 113] |
| 0.028 | O=C(CCS(=O)(=O)c1ccccc1)NC[C@H]1NC(=O)C2(CC2)CNC(=O)CCSSCCNC(=O)[C@H](Cc2cccc3ccccc23)NC1=O [X-Amcp-D-Dap-1-NaI + Acid 114] |
| 0.015 | O=C1CCSSCCNC(=O)[C@H](Cc2cccc3ccccc23)NC(=O)[C@@H](CNC(=O)C2COc3ccccc3O2)NC(=O)C2(CC2)CN1 (stereo partly drawn) [X-Amcp-D-Dap-1-NaI + Acid 115] |
| 0.00133 | O=C1CCSSCCNC(=O)[C@H](Cc2ccc3ccccc3c2)NC(=O)[C@@H](CNC(=O)c2ccc(Cl)s2)NC(=O)C2(CC2)CN1 [X-Amcp-D-Dap-2-Nal + Acid 14] |
| -0.019 | O=C1CCSSCCNC(=O)[C@H](Cc2ccc3ccccc3c2)NC(=O)[C@@H](CNC(=O)c2ccc(Cl)cc2)NC(=O)C2(CC2)CN1 [X-Amcp-D-Dap-2-Nal + Acid 25] |
| -0.00844 | O=C1CCSSCCNC(=O)C(Cc2ccc3ccccc3c2)NC(=O)C(CNC(=O)C2CC2c2ccccc2)NC(=O)C2(CC2)CN1 [X-Amcp-D-Dap-2-Nal + Acid 105] |
| 0.008 | O=C(/C=C/c1ccc(Cl)cc1)NC[C@H]1NC(=O)C2(CC2)CNC(=O)CCSSCCNC(=O)[C@H](Cc2ccc3ccccc3c2)NC1=O [X-Amcp-D-Dap-2-Nal + Acid 108] |
| 0.028 | O=C(/C=C/c1ccc(OCc2ccccc2)cc1)NC[C@H]1NC(=O)C2(CC2)CNC(=O)CCSSCCNC(=O)[C@H](Cc2ccc3ccccc3c2)NC1=O [X-Amcp-D-Dap-2-Nal + Acid 110] |
| -0.00533 | O=C1CCSSCCNC(=O)[C@H](Cc2ccc3ccccc3c2)NC(=O)[C@@H](CNC(=O)c2cccc(Oc3ccccc3)c2)NC(=O)C2(CC2)CN1 [X-Amcp-D-Dap-2-Nal + Acid 111] |
| -0.00533 | O=C(CCS(=O)(=O)c1ccccc1)NC[C@H]1NC(=O)C2(CC2)CNC(=O)CCSSCCNC(=O)[C@H](Cc2ccc3ccccc3c2)NC1=O [X-Amcp-D-Dap-2-Nal + Acid 114] |
| 0.015 | O=C1CCSSCCNC(=O)[C@H](Cc2ccc3ccccc3c2)NC(=O)[C@@H](CNC(=O)C2COc3ccccc3O2)NC(=O)C2(CC2)CN1 (stereo partly drawn) [X-Amcp-D-Dap-2-Nal + Acid 115] |
| 0.008 | O=C1CCSSCCNC(=O)[C@H](Cc2c[nH]c3cc(Cl)ccc23)NC(=O)[C@@H](CNC(=O)c2ccc(Cl)s2)NC(=O)C2(CC2)CN1 [X-Amcp-D-Dap-Cl-Trp + Acid 14] |
| 0.021 | O=C1CCSSCCNC(=O)[C@H](Cc2c[nH]c3cc(Cl)ccc23)NC(=O)[C@@H](CNC(=O)c2ccc(Cl)cc2)NC(=O)C2(CC2)CN1 [X-Amcp-D-Dap-Cl-Trp + Acid 25] |
| 0.018 | O=C(/C=C/c1ccncc1)NC[C@H]1NC(=O)C2(CC2)CNC(=O)CCSSCCNC(=O)[C@H](Cc2c[nH]c3cc(Cl)ccc23)NC1=O [X-Amcp-D-Dap-Cl-Trp + Acid 106] |
| -0.025 | O=C(/C=C/c1ccc(Cl)cc1)NC[C@H]1NC(=O)C2(CC2)CNC(=O)CCSSCCNC(=O)[C@H](Cc2c[nH]c3cc(Cl)ccc23)NC1=O [X-Amcp-D-Dap-Cl-Trp + Acid 108] |
| 0.008 | O=C(/C=C/c1ccc(OCc2ccccc2)cc1)NC[C@H]1NC(=O)C2(CC2)CNC(=O)CCSSCCNC(=O)[C@H](Cc2c[nH]c3cc(Cl)ccc23)NC1=O [X-Amcp-D-Dap-Cl-Trp + Acid 110] |
| -0.00533 | O=C(/C=C/c1ccc2ccccc2c1)NC[C@H]1NC(=O)C2(CC2)CNC(=O)CCSSCCNC(=O)[C@H](Cc2c[nH]c3cc(Cl)ccc23)NC1=O [X-Amcp-D-Dap-Cl-Trp + Acid 112] |
| -0.00533 | O=C(CCS(=O)(=O)c1ccccc1)NC[C@H]1NC(=O)C2(CC2)CNC(=O)CCSSCCNC(=O)[C@H](Cc2c[nH]c3cc(Cl)ccc23)NC1=O [X-Amcp-D-Dap-Cl-Trp + Acid 114] |
| 0.008 | O=C1CCSSCCNC(=O)[C@@H](Cc2c[nH]c3ccccc23)NC(=O)[C@@H](CNC(=O)c2ccc(Cl)cc2)NC(=O)C2(CC2)CN1 [X-Amcp-D-Dap-D-Trp + Acid 25] |
| 0.031 | O=C1CCSSCCNC(=O)[C@@H](Cc2c[nH]c3ccccc23)NC(=O)[C@@H](CNC(=O)c2ccc3ccccc3c2)NC(=O)C2(CC2)CN1 [X-Amcp-D-Dap-D-Trp + Acid 107] |

| SMILES | fraction of fluorescent probe displaced |
| --- | --- |
| CC(Oc1cccc(Cl)c1)C(=O)O (centres unmarked) [Acid 113] | -0.00533 |

Same assay, conditions: Panel c, Library 4: best nine scaffolds and 15 additional carboxylic acids; displacement of fluorescent probe

| fraction of fluorescent probe displaced | SMILES |
| --- | --- |
| 0.036 | O=C(O)/C=C/c1ccc(F)cc1 [Acid 116] |
| 0.028 | CCOc1ccc(/C=C/C(=O)O)cc1 [Acid 117] |
| 0.028 | CCCOc1ccc(/C=C/C(=O)O)cc1 [Acid 118] |
| 0.012 | O=C(O)/C=C/c1ccc(Cl)c(Cl)c1 [Acid 119] |
| -0.00464 | O=C(O)/C=C/c1cccc(Cl)c1 [Acid 121] |
| -0.00464 | CC(=Cc1ccccc1)C(=O)O [Acid 123] |
| -0.021 | CC(C)c1ccc(/C=C/C(=O)O)cc1 [Acid 127] |
| 0.0035 | O=C(O)c1cnc2ccccc2n1 [Acid 130] |

Reference: paper PMC9250534, “Synthesis and direct assay of large macrocycle diversities by combinatorial late-stage modification at picomole scale” (Nature Communications, 2022)
